Laboratory results from ChEMBL document CHEMBL4425121, “Discovery of Substituted 1H-Pyrazolo[3,4-b]pyridine Derivatives as Potent and Selective FGFR Kinase Inhibitors” (ACS Med Chem Lett, 2016).

biological target: Fibroblast growth factor receptor 1 (Homo sapiens, UniProt P11362); experiment: Inhibition of recombinant human FGFR1 using poly (Glu,Tyr)4:1 as substrate incubated for 60 mins by ELISA; conditions: not given
Sequence (P11362 whole entry): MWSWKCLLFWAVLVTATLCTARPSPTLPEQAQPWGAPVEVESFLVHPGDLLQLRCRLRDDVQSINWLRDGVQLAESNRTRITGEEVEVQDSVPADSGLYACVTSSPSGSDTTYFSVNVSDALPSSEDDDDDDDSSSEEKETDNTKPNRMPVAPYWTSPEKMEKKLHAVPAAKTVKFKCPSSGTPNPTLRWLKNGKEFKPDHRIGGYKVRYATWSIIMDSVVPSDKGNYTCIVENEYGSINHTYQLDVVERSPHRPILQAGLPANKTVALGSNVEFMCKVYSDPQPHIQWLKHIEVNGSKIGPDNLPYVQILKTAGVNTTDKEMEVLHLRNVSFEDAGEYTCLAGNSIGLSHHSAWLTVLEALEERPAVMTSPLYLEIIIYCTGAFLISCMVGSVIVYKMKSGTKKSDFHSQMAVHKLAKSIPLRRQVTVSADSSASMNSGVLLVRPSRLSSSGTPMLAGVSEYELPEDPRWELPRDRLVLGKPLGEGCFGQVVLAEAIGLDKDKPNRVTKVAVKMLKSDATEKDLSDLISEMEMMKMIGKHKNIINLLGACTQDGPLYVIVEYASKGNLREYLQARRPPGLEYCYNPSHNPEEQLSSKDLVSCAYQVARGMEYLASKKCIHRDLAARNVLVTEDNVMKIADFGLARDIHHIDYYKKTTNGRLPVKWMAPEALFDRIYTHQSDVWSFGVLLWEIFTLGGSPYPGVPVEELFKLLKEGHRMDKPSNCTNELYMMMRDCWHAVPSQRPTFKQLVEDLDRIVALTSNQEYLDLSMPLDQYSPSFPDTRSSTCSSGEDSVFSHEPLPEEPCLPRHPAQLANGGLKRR

| IC50 [nM] | Structure (SMILES) |
| --- | --- |
| 3710 | COc1cc(OC)cc(-c2ccc3c(NC(=O)c4ccc(N5CCN(C)CC5)cc4)n[nH]c3n2)c1 |
| 16.5 | COc1cc(OC)c(Cl)c(-c2ccc3c(NC(=O)c4ccc(N(C)C)cc4)n[nH]c3n2)c1Cl |
| 7.8 | COc1cc(OC)c(Cl)c(-c2ccc3c(NC(=O)c4ccc(N5CCN(C)CC5)cn4)n[nH]c3n2)c1Cl |
| 14.2 | COc1cc(C(=O)Nc2n[nH]c3nc(-c4c(Cl)c(OC)cc(OC)c4Cl)ccc23)ccc1N1CCN(C)CC1 |
| 7.7 | COc1cc(OC)c(Cl)c(-c2ccc3c(NC(=O)c4ccc(N5CCOCC5)cc4)n[nH]c3n2)c1Cl |
| 0.2 | COc1cc(OC)c(Cl)c(-c2ccc3c(NC(=O)c4ccc(N5CCN(C6CCC6)CC5)cc4)n[nH]c3n2)c1Cl |
| 0.3 | COc1cc(OC)c(Cl)c(-c2ccc3c(NC(=O)c4ccc(N5CCN(C(C)=O)CC5)cc4)n[nH]c3n2)c1Cl |
| 8.8 | COc1cc(OC)c(Cl)c(-c2ccc3c(NC(=O)c4ccc(N5CCCCC5)cc4)n[nH]c3n2)c1Cl |
| 6.9 | COc1cc(OC)c(Cl)c(-c2ccc3c(NC(=O)c4ccc(C5CCN(C)CC5)cc4)n[nH]c3n2)c1Cl |
| 11.7 | COc1cc(OC)c(Cl)c(-c2ccc3c(NC(=O)c4ccc(N5CCNCC5)cc4)n[nH]c3n2)c1Cl |
| 8.8 | COc1cc(OC)c(Cl)c(-c2ccc3c(NC(=O)c4ccc(N)cc4)n[nH]c3n2)c1Cl |
| 1.4 | COc1cc(OC)c(Cl)c(-c2ccc3c(NC(=O)c4ccc(N5CCN(C(C)C)CC5)cc4)n[nH]c3n2)c1Cl |
| 3.9 | COc1cc(OC)c(Cl)c(-c2ccc3c(NC(=O)c4ccc(N(C)CCN(C)C)cc4)n[nH]c3n2)c1Cl |
| 3.3 | COc1cc(OC)c(Cl)c(-c2ccc3c(NC(=O)c4ccc(N5CCN(C)CC5)cc4)n[nH]c3c2)c1Cl |
| > 5000 | COc1cc(OC)c(Cl)c(-c2ccc3c(NC(=O)c4ccc(N5CCN(C)CC5)cc4)nn(C)c3n2)c1Cl |

biological target: T1, Vascular endothelial growth factor receptor 2 (Homo sapiens, UniProt P35968); experiment: Inhibition of recombinant human VEGFR2 using poly (Glu,Tyr)4:1 as substrate incubated for 60 mins by ELISA; conditions: not given
T1 sequence (P35968 whole entry): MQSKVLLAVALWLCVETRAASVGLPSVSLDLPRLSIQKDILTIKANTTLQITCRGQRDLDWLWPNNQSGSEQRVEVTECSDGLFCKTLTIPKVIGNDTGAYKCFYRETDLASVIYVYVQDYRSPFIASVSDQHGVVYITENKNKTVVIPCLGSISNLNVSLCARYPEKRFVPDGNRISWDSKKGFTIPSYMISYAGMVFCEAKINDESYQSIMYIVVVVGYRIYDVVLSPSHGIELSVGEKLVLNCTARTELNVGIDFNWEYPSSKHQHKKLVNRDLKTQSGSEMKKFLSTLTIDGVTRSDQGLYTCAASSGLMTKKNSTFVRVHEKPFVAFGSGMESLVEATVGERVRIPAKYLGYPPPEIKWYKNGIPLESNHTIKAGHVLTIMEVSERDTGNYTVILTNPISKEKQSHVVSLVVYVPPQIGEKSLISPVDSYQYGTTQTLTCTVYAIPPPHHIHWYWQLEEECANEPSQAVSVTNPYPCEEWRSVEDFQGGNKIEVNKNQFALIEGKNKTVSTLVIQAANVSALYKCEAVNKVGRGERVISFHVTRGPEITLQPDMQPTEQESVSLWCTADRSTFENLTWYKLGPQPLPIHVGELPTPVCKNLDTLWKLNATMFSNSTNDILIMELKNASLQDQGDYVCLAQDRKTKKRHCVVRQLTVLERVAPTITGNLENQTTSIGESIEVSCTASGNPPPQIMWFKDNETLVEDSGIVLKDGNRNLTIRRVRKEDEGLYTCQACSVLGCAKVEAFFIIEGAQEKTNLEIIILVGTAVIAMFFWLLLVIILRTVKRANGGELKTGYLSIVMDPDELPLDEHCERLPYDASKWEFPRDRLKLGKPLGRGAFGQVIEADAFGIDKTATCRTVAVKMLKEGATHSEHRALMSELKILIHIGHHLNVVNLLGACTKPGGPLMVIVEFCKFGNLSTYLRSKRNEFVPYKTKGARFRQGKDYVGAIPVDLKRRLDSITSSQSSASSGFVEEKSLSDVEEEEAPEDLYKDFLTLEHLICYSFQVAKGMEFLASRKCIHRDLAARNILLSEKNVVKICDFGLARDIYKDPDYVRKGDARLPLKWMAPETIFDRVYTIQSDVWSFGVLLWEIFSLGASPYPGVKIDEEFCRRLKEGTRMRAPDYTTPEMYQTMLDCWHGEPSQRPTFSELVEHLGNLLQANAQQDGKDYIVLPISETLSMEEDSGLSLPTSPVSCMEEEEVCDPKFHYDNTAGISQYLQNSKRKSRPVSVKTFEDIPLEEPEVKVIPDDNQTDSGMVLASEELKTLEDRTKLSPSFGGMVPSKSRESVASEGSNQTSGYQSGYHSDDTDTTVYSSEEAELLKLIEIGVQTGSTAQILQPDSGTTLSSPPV

| IC50 [nM] | Structure (SMILES) |
| --- | --- |
| 548 | COc1cc(OC)cc(-c2ccc3c(NC(=O)c4ccc(N5CCN(C)CC5)cc4)n[nH]c3n2)c1 |

biological target: T1, Vascular endothelial growth factor receptor 2; experiment: Inhibition of VEGFR2 (unknown origin) overexpressed in mouse NIH/ 3T3 cells incubated for 5 mins followed by stimulation with VEGF for 5 mins by immunoblotting analysis; assay type: cell-based; conditions: not given

| IC50 [nM] | Structure (SMILES) |
| --- | --- |
| 100 to 200 | CCN(CC)CCCCNc1ncc2cc(-c3cc(OC)cc(OC)c3)c(NC(=O)NC(C)(C)C)nc2n1 [PD-173074] |

test system: NCI-H1581; experiment: Antiproliferative activity against human NCI-H1581 cells after 72 hrs by CCK-8 assay; assay type: functional, cell-based; conditions: NCI-H1581, 72 h

| IC50 [nM] | Structure (SMILES) |
| --- | --- |
| > 1000 | COc1cc(OC)cc(-c2ccc3c(NC(=O)c4ccc(N5CCN(C)CC5)cc4)n[nH]c3n2)c1 |
| 294 | COc1cc(OC)c(Cl)c(-c2ccc3c(NC(=O)c4ccc(N(C)C)cc4)n[nH]c3n2)c1Cl |
| 4.4 | COc1cc(OC)c(Cl)c(-c2ccc3c(NC(=O)c4ccc(N5CCN(C)CC5)cn4)n[nH]c3n2)c1Cl |
| 15.6 | COc1cc(C(=O)Nc2n[nH]c3nc(-c4c(Cl)c(OC)cc(OC)c4Cl)ccc23)ccc1N1CCN(C)CC1 |
| 865 | COc1cc(OC)c(Cl)c(-c2ccc3c(NC(=O)c4ccc(N5CCOCC5)cc4)n[nH]c3n2)c1Cl |
| 2.3 | COc1cc(OC)c(Cl)c(-c2ccc3c(NC(=O)c4ccc(N5CCN(C6CCC6)CC5)cc4)n[nH]c3n2)c1Cl |
| 43.3 | COc1cc(OC)c(Cl)c(-c2ccc3c(NC(=O)c4ccc(N5CCN(C(C)=O)CC5)cc4)n[nH]c3n2)c1Cl |
| 558 | COc1cc(OC)c(Cl)c(-c2ccc3c(NC(=O)c4ccc(N5CCCCC5)cc4)n[nH]c3n2)c1Cl |
| 8.2 | COc1cc(OC)c(Cl)c(-c2ccc3c(NC(=O)c4ccc(C5CCN(C)CC5)cc4)n[nH]c3n2)c1Cl |
| 1.4 | COc1cc(OC)c(Cl)c(-c2ccc3c(NC(=O)c4ccc(N5CCNCC5)cc4)n[nH]c3n2)c1Cl |
| 218 | COc1cc(OC)c(Cl)c(-c2ccc3c(NC(=O)c4ccc(N)cc4)n[nH]c3n2)c1Cl |
| 1.4 | COc1cc(OC)c(Cl)c(-c2ccc3c(NC(=O)c4ccc(N5CCN(C(C)C)CC5)cc4)n[nH]c3n2)c1Cl |
| 11 | COc1cc(OC)c(Cl)c(-c2ccc3c(NC(=O)c4ccc(N(C)CCN(C)C)cc4)n[nH]c3n2)c1Cl |
| 324 | COc1cc(OC)c(Cl)c(-c2ccc3c(NC(=O)c4ccc(N5CCN(C)CC5)cc4)n[nH]c3c2)c1Cl |
